{
  "source": "paper PMC3117126",
  "about": "(Journal of medicinal chemistry, 2011)",
  "key": {"human P2Y4 receptor [1]": {"molecular_target": "T1, human P2Y4 receptor (Homo sapiens, UniProt P51582)", "T1 sequence (P51582 whole entry)": "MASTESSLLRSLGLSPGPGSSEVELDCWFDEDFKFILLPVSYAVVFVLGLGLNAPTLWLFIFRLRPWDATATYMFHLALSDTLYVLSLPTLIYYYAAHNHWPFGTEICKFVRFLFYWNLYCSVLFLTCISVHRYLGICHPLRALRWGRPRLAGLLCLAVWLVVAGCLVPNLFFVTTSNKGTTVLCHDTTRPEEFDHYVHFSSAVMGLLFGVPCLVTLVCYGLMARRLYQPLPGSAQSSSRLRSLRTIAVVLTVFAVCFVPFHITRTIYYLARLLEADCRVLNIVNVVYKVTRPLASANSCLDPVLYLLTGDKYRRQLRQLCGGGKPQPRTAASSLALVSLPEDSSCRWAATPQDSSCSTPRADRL", "details": "cited from earlier work"}, "[2]": {"experiment": "Chemical stability: hydrolysis at 37°C and pH 1.5, HPLC", "type": "physicochemical", "details": "pH 1.5, 0.2 mg/mL, compared with 1 (UTP)"}, "human P2Y4 receptor [3]": {"molecular_target": "T1, human P2Y4 receptor", "experiment": "PLC activation", "type": "cell-based", "details": "for selectivity for human P2Y4 over P2Y2 and P2Y6 receptors: over both P2Y2 and P2Y6"}, "human P2Y2 receptor": {"molecular_target": "human P2Y2 receptor (Homo sapiens, UniProt P41231)", "sequence (P41231 whole entry)": "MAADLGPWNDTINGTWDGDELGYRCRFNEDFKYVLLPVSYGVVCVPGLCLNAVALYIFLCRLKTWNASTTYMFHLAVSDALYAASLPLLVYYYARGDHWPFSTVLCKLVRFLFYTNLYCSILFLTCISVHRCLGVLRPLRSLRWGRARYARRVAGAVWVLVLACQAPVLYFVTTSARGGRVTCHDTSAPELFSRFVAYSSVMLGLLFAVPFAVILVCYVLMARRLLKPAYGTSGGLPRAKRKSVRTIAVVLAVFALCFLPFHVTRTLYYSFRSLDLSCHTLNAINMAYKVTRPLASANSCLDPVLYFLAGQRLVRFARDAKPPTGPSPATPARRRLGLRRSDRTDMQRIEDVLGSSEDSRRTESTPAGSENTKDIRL", "experiment": "PLC activation", "type": "cell-based", "details": "for effect at 10 µM, hP2Y2: printed in EC50 column, NE = no effect at 10 µM"}},
  "note": "Where a name gives a salt, the structure may show the parent alone.",
  "data": [
    {"smiles": "[N-]=[N+]=N[C@@H]1[C@H](O)[C@@H](COP(=O)(O)OP(=O)(O)OP(=O)(O)O)O[C@H]1n1ccc(=O)[nH]c1=O", "note": "[Compound 3]", "values": [
      {"measurement": "selectivity for the P2Y4 receptor in comparison to the P2Y2 receptor", "setting": "human P2Y4 receptor [1]", "result": 5, "unit": "fold"}
    ]},
    {"smiles": "O=c1ccn([C@@H]2O[C@H](COP(=O)(O)OP(=O)(O)OP(=O)(O)OP(=O)(O)O[C@H]3O[C@H](CO)[C@@H](O)[C@H](O)[C@H]3O)[C@@H](O)[C@H]2O)c(=O)[nH]1", "note": "[Compound 8, Up4-[1]glucose, reference compound]", "values": [
      {"measurement": "stability at pH 1.5", "setting": "[2]", "result": "less stable at pH 1.5 than 1"}
    ]},
    {"smiles": "O=c1[nH]/c(=N\\OCCc2ccccc2)ccn1[C@@H]1O[C@H](COP(=O)(O)OP(=O)(O)OP(=O)(O)O)[C@@H](O)[C@H]1O", "note": "[Compound 15, N^4-Phenylethoxycytidine-5′-triphosphate triethylammonium salt]", "values": [
      {"measurement": "selectivity for human P2Y4 over P2Y2 and P2Y6 receptors", "setting": "human P2Y4 receptor [3]", "result": "≥ 10", "unit": "fold"}
    ]},
    {"smiles": "O=c1[nH]/c(=N\\OCCCc2ccccc2)ccn1[C@@H]1O[C@H](COP(=O)(O)OP(=O)(O)OP(=O)(O)O)[C@@H](O)[C@H]1O", "note": "[Compound 16, N^4-Phenylpropoxycytidine-5′-triphosphate triethylammonium salt]", "values": [
      {"measurement": "selectivity for human P2Y4 over P2Y2 and P2Y6 receptors", "setting": "human P2Y4 receptor [3]", "result": "≥ 10", "unit": "fold"}
    ]},
    {"smiles": "COc1ccc(OP(=O)(O)OP(=O)(O)OP(=O)(O)OP(=O)(O)OC[C@H]2O[C@@H](n3ccc(=O)[nH]c3=O)[C@H](O)[C@@H]2O)cc1", "note": "[Compound 22, Uridine-5′-(4-methoxyphenyl)-tetraphosphate triethylammonium salt]", "values": [
      {"measurement": "effect at 10 µM, hP2Y2", "setting": "human P2Y2 receptor", "result": "≤50", "unit": "% at 10 µM"}
    ]},
    {"smiles": "COc1cccc(OP(=O)(O)OP(=O)(O)OP(=O)(O)OP(=O)(O)OC[C@H]2O[C@@H](n3ccc(=O)[nH]c3=O)[C@H](O)[C@@H]2O)c1", "note": "[Compound 23, Uridine-5′-(3-methoxyphenyl)-tetraphosphate triethylammonium salt]", "values": [
      {"measurement": "effect at 10 µM, hP2Y2", "setting": "human P2Y2 receptor", "result": "≤50", "unit": "% at 10 µM"}
    ]},
    {"smiles": "O=c1ccn([C@@H]2O[C@H](COP(=O)(O)OP(=O)(O)OP(=O)(O)OP(=O)(O)Oc3ccc([N+](=O)[O-])cc3)[C@@H](O)[C@H]2O)c(=O)[nH]1", "note": "[Compound 24, Uridine-5′-(4-nitrophenyl)-tetraphosphate triethylammonium salt]", "values": [
      {"measurement": "effect at 10 µM, hP2Y2", "setting": "human P2Y2 receptor", "result": "abolished activity"}
    ]},
    {"smiles": "O=c1ccn([C@@H]2O[C@H](COP(=O)(O)OP(=O)(O)C(Cl)(Cl)P(=O)(O)OP(=O)(O)O[C@H]3O[C@H](CO)[C@@H](O)[C@H](O)[C@H]3O)[C@@H](O)[C@H]2O)c(=O)[nH]1", "note": "[Compound 26, Uridine-5′-glucose-1′-β,γ-dichloromethylene tetraphosphate triethylammonium salt]", "values": [
      {"measurement": "effect at 10 µM, hP2Y2", "setting": "human P2Y2 receptor", "result": "≤50", "unit": "% at 10 µM"}
    ]},
    {"smiles": "O=c1ccn([C@@H]2O[C@H](COP(=O)(O)OP(=O)(O)OP(=O)(O)OP(=O)(O)O[C@H]3O[C@H](CO)[C@@H](O)[C@@H](O)[C@H]3O)[C@@H](O)[C@H]2O)c(=O)[nH]1", "note": "[Compound 28, Uridine-5′-allose-1′-tetraphosphate triethylammonium salt]", "values": [
      {"measurement": "increase in P2Y4 receptor potency relative to Up4-[1]glucose 8", "setting": "human P2Y4 receptor [3]; compared with 8", "result": 11, "unit": "fold"}
    ]},
    {"smiles": "O=c1ccn([C@@H]2O[C@H](COP(=O)(O)OP(=O)(O)OP(=O)(O)OP(=O)(O)O[C@H]3OC[C@@H](O)[C@H](O)[C@H]3O)[C@@H](O)[C@H]2O)c(=O)[nH]1", "note": "[Compound 30, Uridine-5′-xylose-1′-tetraphosphate triethylammonium salt]", "values": [
      {"measurement": "reduction in potency at P2Y2 receptor relative to 8", "setting": "human P2Y2 receptor; fold less potent than 8", "result": 9, "unit": "fold"}
    ]},
    {"smiles": "O=c1ccn([C@@H]2O[C@H](COP(=O)(O)OP(=O)(O)OP(=O)(O)OP(=O)(O)O[C@H]3O[C@H](CO)[C@@H](O)[C@H](F)[C@H]3O)[C@@H](O)[C@H]2O)c(=O)[nH]1", "note": "[Compound 34, P^1-(Uridine-5′-)P^4-(3′-deoxy-3′-fluoroglucose-1′-)tetraphosphate triethylammonium salt]", "values": [
      {"measurement": "selectivity for human P2Y4 over P2Y2 and P2Y6 receptors", "setting": "human P2Y4 receptor [3]", "result": "≥ 10", "unit": "fold"},
      {"measurement": "stability at pH 1.5", "setting": "[2]", "result": "much more labile"}
    ]}
  ]
}
